Measured values from article PMC3412796, “High-Throughput Screening and Rapid Inhibitor Triage Using an Infectious Chimeric Hepatitis C Virus” (PLoS ONE, 2012).
Marks after values point to notes of the source that are not given here.

What was measured:
[1] = system: gt 1a/2a-Rluc virus; experiment: Virus foci expansion by HCV Core immunofluorescence; format: cell-based, Hepatitis C virus; conditions: EI 1 µM added 16 h post-entry, LY411575 0.5 µM
[2] = system: gt 1a/2a-Rluc virus; experiment: Multi-cycle virus growth assay, Renilla luciferase readout (HTS); conditions: for inhibition of luciferase expression: MOI 0.05, EI 1 µM added 16 h post-entry, LY411575 0.5 µM
Protocol: For compound library screening, infections were performed in 384-well plates by pre-mixing 400 ffu of gt 1a/2a-Rluc virus with 1×10^4 Huh-7.5 cells and dispensing 50 µl on top of 150 nl of compound in DMSO (final 0.3% DMSO) followed by incubation at 37°C. Renilla luciferase activity, reflecting the degree of virus replication, was measured 96 h after infection using the EnduRen reagent (Promega). […] Maximum activity (100% of control) and background were derived from control wells containing DMSO alone or from uninfected wells, respectively. The individual signals in each of the compound test wells were then divided by the averaged control values (wells lacking inhibitor), after background subtraction, and multiplied by 100% to determine percent activity. The corresponding % inhibition values were then calculated by subtracting this value from 100. Dose-response assays were performed in triplicate and average EC50 values (reflecting the concentration at which 50% inhibition of virus replication was achieved) were calculated using XLfit for Excel (ID Business Solutions, Burlington, MA). Cytotoxicity studies were performed in parallel using CellTiter-Glo (Promega). For high-content screening, virus and cells were prepared as above and 50 ul was dispensed into black 384 well optics plates (Thermo Scientific). At 96 h post-infection, cells were fixed for 20 min by adding 17 ul of 16% paraformaldehyde (Electron Microscopy Sciences) to achieve 4% final fixative. Cells were washed and permeabilized twice for 10 min each with PBS containing 1% TX-100 and 0.05% Tween-20 (wash buffer) and blocked for 15 min with PBS with 2% BSA (blocking buffer). […] The total number of cells per well (Hoechst staining) and infected cells per well (HCV Core) was measured using a Cellomics ArrayScan HCS Reader (Thermo Scientific) and EC50 values calculated as described above.

[3] = system: gt 1a/2a-Rluc virus; experiment: HCVcc resistance selection; conditions: virus cultured at 5× EC50 up to 10 weeks or until resistance observed
Protocol: The gt 1a/2a-Rluc virus was used to infect Huh-7.5 cells and inhibitor was added 12 h post-infection at 5× EC50. Infection was allowed to progress for 96 h and cells were split 1∶1 with naïve Huh-7.5 cells in the presence of inhibitor and cultured for another 96 h. Viral supernatants were passed onto naïve Huh-7.5 cells in the presence of inhibitor and HCVcc replication in the presence of inhibitor was monitored by determining the spread of virus infection, using immunofluorescence (HCV Core), at each passage. Generally, virus stocks were prepared when HCVcc was ≥10-fold resistant relative to wild-type parental virus. The HCV genome was amplified by RT-PCR (Invitrogen), cloned and amino acid changes that arose during inhibitor selection were identified by analysis of the DNA sequence compared to the parent and control passages in the absence of inhibitor.

[4] = system: gt 1a/2a-Rluc virus; experiment: HCV Core Cellomics ArrayScan assay (HCS); conditions: 96 h, Huh-7.5 cells, HCV Core Cellomics readout, average ± SD of at least three experiments
Protocol: For compound library screening, infections were performed in 384-well plates by pre-mixing 400 ffu of gt 1a/2a-Rluc virus with 1×10^4 Huh-7.5 cells and dispensing 50 µl on top of 150 nl of compound in DMSO (final 0.3% DMSO) followed by incubation at 37°C. Renilla luciferase activity, reflecting the degree of virus replication, was measured 96 h after infection using the EnduRen reagent (Promega). […] Maximum activity (100% of control) and background were derived from control wells containing DMSO alone or from uninfected wells, respectively. The individual signals in each of the compound test wells were then divided by the averaged control values (wells lacking inhibitor), after background subtraction, and multiplied by 100% to determine percent activity. The corresponding % inhibition values were then calculated by subtracting this value from 100. Dose-response assays were performed in triplicate and average EC50 values (reflecting the concentration at which 50% inhibition of virus replication was achieved) were calculated using XLfit for Excel (ID Business Solutions, Burlington, MA). Cytotoxicity studies were performed in parallel using CellTiter-Glo (Promega). […] The total number of cells per well (Hoechst staining) and infected cells per well (HCV Core) was measured using a Cellomics ArrayScan HCS Reader (Thermo Scientific) and EC50 values calculated as described above. […]

[5] = system: gt 1a/2a-Rluc virus; experiment: HCVcc infectious virus release assay; conditions: 2× EC90 of compound, 48 h pi
Protocol: Cells were incubated at 37°C for 48 h and supernatants were collected. Supernatants were clarified by centrifugation, diluted 20 fold and used to infect naïve Huh-7.5 cells in 96 well plates. Renilla luciferase expression was measured in both producer cells and target cells 48 h post-infection as described above.

Row | Compound | size of HCV Core-positive virus foci ([1]; 48 h pi, MOI 0.05, Huh-7.5) [mean cells/foci] | inhibition of expansion of virus foci ([1]; 96 h pi, MOI 0.05) [fold] | % inhibition in a 96 h assay ([2]; 384 well, 400 ffu of virus/well and 4,000 Huh7.5 cells (MOI = 0.1), 96 h) [%] | inhibition of luciferase expression ([2]; 48 h pi) [%] | inhibition of luciferase expression ([2]; 72 h pi) [%] | inhibition of luciferase expression ([2]; 96 h pi) [%] | difference in potency at 96 h vs 48 h pi (multi- vs single-cycle) ([2]; EC50 at 48 h vs 96 h pi) [fold] | EC50 ([2]; read-out: Luciferase (EC50), 96 h, Huh-7.5 cells, Renilla luciferase readout, average ± SD of at least three experiments) [nM] | Fold Resistance [3] | EC50 ([4]; read-out: Cellomics (EC50)) [nM] | effect on Renilla luciferase expression in producer and target cells [5] | Luciferase (EC50) ([2]; 96 h, Huh-7.5 cells, Renilla luciferase readout, average ± SD of at least three experiments) | Cellomics (EC50) [4]
1 | C[C@H](NC(=O)[C@@H](O)c1cc(F)cc(F)c1)C(=O)N[C@@H]1C(=O)N(C)c2ccccc2-c2ccccc21 [LY411575] | 2.0±0.6 | > 20 | > 90 | < 20 | > 80 | > 90 | > 200 | 10 ± 3.3 | did not select for resistance through ten weeks of culture and None | 11 ± 4.1 | only affected Renilla luciferase expression in target cells |  | 
2 | IFNα |  |  |  |  |  |  |  |  |  |  |  | 0.20±0.04 ^b International units per ml | 0.17±0.08 ^b International units per ml
